Test results from PubChem BioAssay (NCI).
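Where inhibition never reached the appropriate level, the endpoint shown equals the highest concentration tested. Otherwise, values were interpolated linearly from a five-concentration, 48-hour dose response in 96-well plates. GI50: concentration for 50% inhibition of growth. TGI: total growth inhibition.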

What was measured:
Assay in all cases: inhibition of tumour cell growth, NCI panel, 48 h
[1] = test system: SF-295 CNS
[2] = test system: HS 578T breast
[3] = test system: SR leukemia
[4] = test system: M14 melanoma
[5] = test system: 786-0 renal
[6] = test system: HOP-92 NSCLC
[7] = test system: HL-60(TB) leukemia
[8] = test system: PC-3 prostate
[9] = test system: MOLT-4 leukemia
[10] = test system: HCT-116 colon
[11] = test system: RXF 393 renal
[12] = test system: MDA-MB-231 breast
[13] = test system: NCI-H522 lung
[14] = test system: NCI-H460 lung
[15] = test system: T-47D breast
[16] = test system: OVCAR-3 ovarian
[17] = test system: BT-549 breast
[18] = test system: SNB-19 CNS
[19] = test system: UO-31 renal
[20] = test system: MALME-3M melanoma
[21] = test system: A498 renal
[22] = test system: SK-OV-3 ovarian
[23] = test system: IGROV1 ovarian
[24] = test system: ACHN renal
[25] = test system: MDA-MB-435
[26] = test system: RPMI-8226 leukemia
[27] = test system: CAKI-1 renal
[28] = test system: SF-539 CNS
[29] = test system: EKVX NSCLC
[30] = test system: COLO 205 colon
[31] = test system: SW-620 colon
[32] = test system: MCF7 breast
[33] = test system: CCRF-CEM leukemia
[34] = test system: SNB-75 CNS
[35] = test system: KM12 colon
[36] = test system: HT29 colon
[37] = test system: DU-145 prostate
[38] = test system: K-562 leukemia
[39] = test system: OVCAR-8 ovarian
[40] = test system: SF-268 CNS
[41] = test system: SK-MEL-28 melanoma
[42] = test system: HCT-15 colon
[43] = test system: LOX IMVI melanoma
[44] = test system: NCI-H23 lung
[45] = test system: OVCAR-4 ovarian
[46] = test system: HOP-62 NSCLC
[47] = test system: OVCAR-5 ovarian
[48] = test system: UACC-257 melanoma
[49] = test system: SN12C renal
[50] = test system: A549 NSCLC
[51] = test system: U251 CNS
[52] = test system: NCI/ADR-RES ovarian
[53] = test system: TK-10 renal
[54] = test system: SK-MEL-5 melanoma
[55] = test system: HCC-2998 colon
[56] = test system: UACC-62 melanoma
[57] = test system: MDA-N
[58] = test system: NCI-H226 lung

Compound: COC1=C(OC)[C@]2(OC)c3c(O)c(OC)c4c(c3O[C@@]23O[C@@H](c2ccccc2)CC=C3C1=O)[C@@H](OC)C[C@H](c1ccccc1)O4
- GI50 [1]: 1560 nM
- TGI [1]: 2970 nM
- GI50 [2]: 896 nM
- TGI [2]: 3660 nM
- GI50 [3]: 31.7 nM
- TGI [3]: 133 nM
- GI50 [4]: 516 nM
- TGI [4]: 1860 nM
- GI50 [5]: 292 nM
- TGI [5]: 801 nM
- GI50 [6]: 1240 nM
- TGI [6]: 2550 nM
- GI50 [7]: 530 nM
- TGI [7]: 1400 nM
- GI50 [8]: 706 nM
- TGI [8]: 1840 nM
- GI50 [9]: 40.1 nM
- TGI [9]: 194 nM
- GI50 [10]: 226 nM
- TGI [10]: 517 nM
- GI50 [11]: 1350 nM
- TGI [11]: 3170 nM
- GI50 [12]: 445 nM
- TGI [12]: 1700 nM
- GI50 [13]: 247 nM
- TGI [13]: 762 nM
- GI50 [14]: 1090 nM
- TGI [14]: 2560 nM
- GI50 [15]: 564 nM
- TGI [15]: 1710 nM
- GI50 [16]: 255 nM
- TGI [16]: 720 nM
- GI50 [17]: 461 nM
- TGI [17]: 1560 nM
- GI50 [18]: 1810 nM
- TGI [18]: 3510 nM
- GI50 [19]: 957 nM
- TGI [19]: 2130 nM
- GI50 [20]: 377 nM
- TGI [20]: 1380 nM
- GI50 [21]: 1510 nM
- TGI [21]: 2940 nM
- GI50 [22]: 1910 nM
- TGI [22]: 3560 nM
- GI50 [23]: 374 nM
- TGI [23]: 1410 nM
- GI50 [24]: 605 nM
- TGI [24]: 1810 nM
- GI50 [25]: 301 nM
- TGI [25]: 1100 nM
- GI50 [26]: 83 nM
- TGI [26]: 335 nM
- GI50 [27]: 510 nM
- TGI [27]: 1880 nM
- GI50 [28]: 421 nM
- TGI [28]: 1540 nM
- GI50 [29]: 1300 nM
- TGI [29]: 2750 nM
- GI50 [30]: 326 nM
- TGI [30]: 1440 nM
- GI50 [31]: 178 nM
- TGI [31]: 933 nM
- GI50 [32]: 265 nM
- TGI [32]: 1360 nM
- GI50 [33]: 17.3 nM
- TGI [33]: 63.1 nM
- GI50 [34]: 1360 nM
- TGI [34]: 2790 nM
- GI50 [35]: 1570 nM
- TGI [35]: 3120 nM
- GI50 [36]: 235 nM
- TGI [36]: 612 nM
- GI50 [37]: 2090 nM
- TGI [37]: 3750 nM
- GI50 [38]: 67.6 nM
- TGI [38]: 333 nM
- GI50 [39]: 451 nM
- TGI [39]: 2620 nM
- GI50 [40]: 806 nM
- TGI [40]: 2840 nM
- GI50 [41]: 591 nM
- TGI [41]: 1490 nM
- GI50 [42]: 290 nM
- TGI [42]: 819 nM
- GI50 [43]: 1580 nM
- TGI [43]: 3310 nM
- GI50 [44]: 277 nM
- TGI [44]: 1010 nM
- GI50 [45]: 667 nM
- TGI [45]: 2150 nM
- GI50 [46]: 2330 nM
- TGI [46]: 5610 nM
- GI50 [47]: 1500 nM
- TGI [47]: 2930 nM
- GI50 [48]: 814 nM
- TGI [48]: 2170 nM
- GI50 [49]: 317 nM
- TGI [49]: 1030 nM
- GI50 [50]: 2210 nM
- TGI [50]: 5020 nM
- GI50 [51]: 1410 nM
- TGI [51]: 2740 nM
- GI50 [52]: 607 nM
- TGI [52]: 3740 nM
- GI50 [53]: 821 nM
- TGI [53]: 1930 nM
- GI50 [54]: 739 nM
- TGI [54]: 1960 nM
- GI50 [55]: 1400 nM
- TGI [55]: 3320 nM
- GI50 [56]: 1820 nM
- TGI [56]: 3830 nM
- GI50 [57]: 340 nM
- TGI [57]: 1160 nM

Compound: C=CCNC(=O)CN(CC(=O)O)C1CCCCC1N(CC(=O)O)CC(=O)O (stereo not given)
- TGI [1]: > 100000 nM
- TGI [2]: > 100000 nM
- TGI [3]: > 100000 nM
- TGI [5]: > 100000 nM
- TGI [6]: > 100000 nM
- TGI [7]: > 100000 nM
- TGI [8]: > 100000 nM
- TGI [9]: > 100000 nM
- TGI [10]: > 100000 nM
- TGI [11]: > 100000 nM
- TGI [12]: > 100000 nM
- TGI [13]: > 100000 nM
- TGI [14]: > 100000 nM
- TGI [15]: > 100000 nM
- TGI [16]: > 100000 nM
- TGI [17]: > 100000 nM
- TGI [18]: > 100000 nM
- TGI [19]: > 100000 nM
- TGI [20]: > 100000 nM
- TGI [21]: > 100000 nM
- TGI [22]: > 100000 nM
- TGI [23]: > 100000 nM
- TGI [24]: > 100000 nM
- TGI [25]: > 100000 nM
- TGI [26]: > 100000 nM
- TGI [27]: > 100000 nM
- TGI [28]: > 100000 nM
- TGI [30]: > 100000 nM
- TGI [31]: > 100000 nM
- TGI [32]: > 100000 nM
- TGI [33]: > 100000 nM
- TGI [34]: > 100000 nM
- TGI [58]: > 100000 nM
- TGI [35]: > 100000 nM
- TGI [36]: > 100000 nM
- TGI [37]: > 100000 nM
- TGI [38]: > 100000 nM
- TGI [39]: > 100000 nM
- TGI [40]: > 100000 nM
- TGI [41]: > 100000 nM
- TGI [42]: > 100000 nM
- TGI [43]: > 100000 nM
- TGI [44]: > 100000 nM
- TGI [45]: > 100000 nM
- TGI [46]: > 100000 nM
- TGI [47]: > 100000 nM
- TGI [48]: > 100000 nM
- TGI [49]: > 100000 nM
- TGI [50]: > 100000 nM
- TGI [51]: > 100000 nM
- TGI [52]: > 100000 nM
- TGI [53]: > 100000 nM
- TGI [54]: > 100000 nM
- TGI [55]: > 100000 nM
- TGI [56]: > 100000 nM
- TGI [57]: > 100000 nM
